How the values were obtained:
Format in all cases: functional
EKVX [1] = experiment: Growth inhibition of human EKVX cells assessed as cell growth at 0.01 uM after 48 hrs by SRB assay relative to control; conditions: read-out: Activity
SF-295 = experiment: Growth inhibition of human SF295 cells assessed as cell growth at 0.01 uM after 48 hrs by SRB assay relative to control; conditions: SF-295, 48 h, read-out: Activity
UACC-257 = experiment: Growth inhibition of human UACC257 cells assessed as cell growth at 0.01 uM after 48 hrs by SRB assay relative to control; conditions: UACC-257, 48 h, read-out: Activity
OVCAR-8 [2] = experiment: Growth inhibition of human OVCAR8 cells assessed as cell growth at 0.01 uM after 48 hrs by SRB assay relative to control; conditions: OVCAR-8, 48 h, read-out: Activity
NCI/ADR-RES = experiment: Growth inhibition of human NCI-ADR-RES cells assessed as cell growth at 0.01 uM after 48 hrs by SRB assay relative to control; conditions: read-out: Activity
786-0 = experiment: Growth inhibition of human 786-0 cells assessed as cell growth at 0.01 uM after 48 hrs by SRB assay relative to control; conditions: 786-0, 48 h, read-out: Activity
SR = experiment: Growth inhibition of human SR cells assessed as cell growth at 0.1 uM after 48 hrs by SRB assay relative to control; conditions: read-out: Activity
NCI-H460 = experiment: Growth inhibition of human NCI-H460 cells assessed as cell growth at 0.1 uM after 48 hrs by SRB assay relative to control; conditions: NCI-H460, 48 h, read-out: Activity
SK-MEL-28 = experiment: Growth inhibition of human SK-MEL-28 cells assessed as cell growth at 0.1 uM after 48 hrs by SRB assay relative to control; conditions: SK-MEL-28, 48 h, read-out: Activity
PC-3 = experiment: Growth inhibition of human PC3 cells assessed as cell growth at 0.1 uM after 48 hrs by SRB assay relative to control; conditions: PC-3, 48 h, read-out: Activity
EKVX [3] = experiment: Growth inhibition of human EKVX cells assessed as cell growth at 1 uM after 48 hrs by SRB assay relative to control; conditions: read-out: Activity
M14 [4] = experiment: Growth inhibition of human M14 cells assessed as cell growth at 1 uM after 48 hrs by SRB assay relative to control; conditions: M14, 48 h, read-out: Activity
OVCAR-8 [5] = experiment: Growth inhibition of human OVCAR8 cells assessed as cell growth at 1 uM after 48 hrs by SRB assay relative to control; conditions: OVCAR-8, 48 h, read-out: Activity
NCI-H23 = experiment: Growth inhibition of human NCI-H23 cells assessed as cell growth at 10 uM after 48 hrs by SRB assay relative to control; conditions: NCI-H23, 48 h, read-out: Activity
SNB-75 [6] = experiment: Growth inhibition of human SNB75 cells assessed as cell growth at 10 uM after 48 hrs by SRB assay relative to control; conditions: SNB-75, 48 h, read-out: Activity
CAKI-1 [7] = experiment: Growth inhibition of human Caki1 cells assessed as cell growth at 10 uM after 48 hrs by SRB assay relative to control; conditions: CAKI-1, 48 h, read-out: Activity
BT-549 = experiment: Growth inhibition of human BT549 cells assessed as cell growth at 10 uM after 48 hrs by SRB assay relative to control; conditions: BT-549, 48 h, read-out: Activity
HOP-92 [8] = experiment: Growth inhibition of human HOP92 cells assessed as cell growth at 100 uM after 48 hrs by SRB assay relative to control; conditions: HOP-92, 48 h, read-out: Activity
MDA-MB-435 = experiment: Growth inhibition of human MDA-MB-435 cells assessed as cell growth at 100 uM after 48 hrs by SRB assay relative to control; conditions: MDA-MB-435, 48 h, read-out: Activity
OVCAR-4 = experiment: Growth inhibition of human OVCAR4 cells assessed as cell growth at 100 uM after 48 hrs by SRB assay relative to control; conditions: OVCAR-4, 48 h, read-out: Activity
CAKI-1 [9] = experiment: Growth inhibition of human Caki1 cells assessed as cell growth at 100 uM after 48 hrs by SRB assay relative to control; conditions: CAKI-1, 48 h, read-out: Activity
T47D [10] = experiment: Growth inhibition of human T47D cells assessed as cell growth at 100 uM after 48 hrs by SRB assay relative to control; conditions: read-out: Activity
RPMI-8226 = experiment: Cytotoxicity against human RPMI8226 cells assessed as growth inhibition after 48 hrs by SRB assay; conditions: RPMI-8226, 48 h
HOP-92 [11] = experiment: Cytotoxicity against human HOP92 cells assessed as growth inhibition after 48 hrs by SRB assay; conditions: HOP-92, 48 h
HCT-15 = experiment: Cytotoxicity against human HCT15 cells assessed as growth inhibition after 48 hrs by SRB assay; conditions: HCT-15, 48 h
SF-539 = experiment: Cytotoxicity against human SF539 cells assessed as growth inhibition after 48 hrs by SRB assay; conditions: SF-539, 48 h
SNB-75 [12] = experiment: Cytotoxicity against human SNB75 cells assessed as growth inhibition after 48 hrs by SRB assay; conditions: SNB-75, 48 h
M14 [13] = experiment: Cytotoxicity against human M14 cells assessed as growth inhibition after 48 hrs by SRB assay; conditions: M14, 48 h
DU-145 = experiment: Cytotoxicity against human DU145 cells assessed as growth inhibition after 48 hrs by SRB assay; conditions: DU-145, 48 h
T47D [14] = experiment: Cytotoxicity against human T47D cells assessed as growth inhibition after 48 hrs by SRB assay
[15] = read-out: LC50 (the source's name)
[16] = read-out: pLC50 (the source's name) (converted)

COc1ccc2c(c1)CCc1n[nH]c(-c3cc(OC)c(OC)c(OC)c3)c1-2
growth at 0.01 µM (EKVX [1]): 48% | growth at 0.01 µM (SF-295): 3% | growth at 0.01 µM (UACC-257): 47% | growth at 0.01 µM (OVCAR-8 [2]): 15% | growth at 0.01 µM (NCI/ADR-RES): -13% | growth at 0.01 µM (786-0): 24% | growth at 0.1 µM (SR): 18% | growth at 0.1 µM (NCI-H460): 2% | growth at 0.1 µM (SK-MEL-28): 60% | growth at 0.1 µM (PC-3): 19% | growth at 1 µM (EKVX [3]): 52% | growth at 1 µM (M14 [4]): 4% | growth at 1 µM (OVCAR-8 [5]): 10% | growth at 10 µM (NCI-H23): -6% | growth at 10 µM (SNB-75 [6]): 22% | growth at 10 µM (CAKI-1 [7]): 13% | growth at 10 µM (BT-549): 1% | growth at 100 µM (HOP-92 [8]): -50% | growth at 100 µM (MDA-MB-435): -64% | growth at 100 µM (OVCAR-4): -12% | growth at 100 µM (CAKI-1 [9]): -20% | growth at 100 µM (T47D [10]): -72% | CC50 (RPMI-8226; [15]): > 100 µM | TGI (RPMI-8226; read-out: TGI): > 100 µM | CC50 (RPMI-8226; [16]): > 100 µM | TGI (RPMI-8226; read-out: pTGI): > 100 µM | GI50 (HOP-92 [11]; read-out: GI50): < 0.01 µM | CC50 (HOP-92 [11]; [15]): 99.8 µM | TGI (HOP-92 [11]; read-out: TGI): 28.5 µM | GI50 (HOP-92 [11]; read-out: pGI50 (converted)): < 0.01 µM | CC50 (HOP-92 [11]; [16]): 100 µM | TGI (HOP-92 [11]; read-out: pTGI (converted)): 28.2 µM | GI50 (HCT-15; read-out: GI50): < 0.01 µM | CC50 (HCT-15; [15]): > 100 µM | TGI (HCT-15; read-out: TGI): 11.8 µM | GI50 (HCT-15; read-out: pGI50 (converted)): < 0.01 µM | CC50 (HCT-15; [16]): > 100 µM | TGI (HCT-15; read-out: pTGI (converted)): 11.7 µM | GI50 (SF-539; read-out: GI50): < 0.01 µM | CC50 (SF-539; [15]): 29.9 µM | TGI (SF-539; read-out: TGI): < 0.01 µM | GI50 (SF-539; read-out: pGI50 (converted)): < 0.01 µM | CC50 (SF-539; [16]): 30.2 µM | TGI (SF-539; read-out: pTGI): < 0.01 µM | GI50 (SNB-75 [12]; read-out: GI50): < 0.01 µM | CC50 (SNB-75 [12]; [15]): > 100 µM | TGI (SNB-75 [12]; read-out: TGI): 26.1 µM | GI50 (SNB-75 [12]; read-out: pGI50 (converted)): < 0.01 µM | CC50 (SNB-75 [12]; [16]): > 100 µM | TGI (SNB-75 [12]; read-out: pTGI (converted)): 26.3 µM | GI50 (M14 [13]; read-out: GI50): < 0.01 µM | LC50 (M14 [13]; read-out: LC50): 58.7 µM | TGI (M14 [13]; read-out: TGI): 10.9 µM | GI50 (M14 [13]; read-out: pGI50 (converted)): < 0.01 µM | LC50 (M14 [13]; read-out: pLC50 (converted)): 58.9 µM | TGI (M14 [13]; read-out: pTGI (converted)): 11 µM | GI50 (DU-145; read-out: GI50): < 0.01 µM | CC50 (DU-145; [15]): > 100 µM | TGI (DU-145; read-out: TGI): > 100 µM | GI50 (DU-145; read-out: pGI50 (converted)): < 0.01 µM | CC50 (DU-145; [16]): > 100 µM | TGI (DU-145; read-out: pTGI): > 100 µM | GI50 (T47D [14]; read-out: GI50): 3.59 µM | LC50 (T47D [14]; read-out: LC50): 62.5 µM | TGI (T47D [14]; read-out: TGI): 21.3 µM | GI50 (T47D [14]; read-out: pGI50 (converted)): 3.63 µM | LC50 (T47D [14]; read-out: pLC50 (converted)): 63.1 µM | TGI (T47D [14]; read-out: pTGI (converted)): 21.4 µM

Source: ChEMBL document CHEMBL4346757, “Synthesis and biological evaluation of 7-methoxy-1-(3,4,5-trimethoxyphenyl)-4,5-dihydro-2H-benzo[e]indazoles as new colchicine site inhibitors” (Bioorg Med Chem Lett, 2019)
